Where a name gives a salt, the structure may show the parent alone.
Columns and labels:
CYP1A2 = test system: CYP1A2; set-up: method as in Investigator’s Brochure (IB); conditions: in vitro; ref Investigator’s Brochure (IB); cited from earlier work
[1] = human, mouse, rat, and dog liver microsomes and hepatocytes; ref Investigator’s Brochure (IB); cited from earlier work
[2] = Cardiovascular assessment in dogs, single dose GLP study (UV4-COV-0023); format: in vivo; conditions: dog, 50 mg/kg
Text: dependent from lowest to highest partitioning in mouse, rat, human, and dog. Mean blood cell partitioning ranged from 29.7% to 37.2% in mouse, 32.1% to 35.1% in rat, 32.7% to 53.3% in human, and 58.6% to 63.8% in dog. […]
hepatocytes. Metabolism was minimal and appears to involve O-demethylation, oxidation, and direct glucuronidation of UV-4. Three metabolites were tentatively identified in mouse and dog hepatocytes, whereas only the O-demethylation and oxidation metabolites, but not the direct glucuronidation product of UV-4, were found in human hepatocytes.
Following a single oral dose, UV-4 appears to be rapidly excreted with t1/2 values ranging from 2 hours in ferrets, 3 to 5 hours in mice and rats, and 4 to 9 hours in dogs. In rats, urinary excretion of UV-4 after an oral dose of UV-4B was rapid, with the highest percent dose excreted in the initial 0 to 4 hour period after dosing. […]
Based on the dog NOAEL [10 mg/kg/dose TID] and the appropriate conversion recommended in the FDA guidance (e.g., 60 kg body weight for humans), the HED for the NOAEL of UV-4B in dog is 333 mg TID. Considering that the lowest dose tested in dogs (2 mg/kg TID or expressed as HED, 67 mg TID) was associated with decreases in PLT count (mild), increases in aPTT (very mild), increases in AST (up to 3x BL), and histopathological changes, a 100-fold safety factor was applied to the NOAEL. […]

[3] = 14-day GLP toxicology study in mice (UV4-COV-036); conditions: Crl:CD1(ICR), mouse, in vivo, 300 mg/kg/day, read-out: Daily exposure at NOAEL [3 x AUC(0-8)]
Protocol: Fourteen-day studies were conducted in mice and dogs. […]
The inverted AST/ALT ratio […]
and lymphocyte depletion were reversible. Thymus weight decrease in females was reversible but thymus weight decreases in males were not. However, because the apparent […]
microscopic thymus findings, thymus weight differences at the recovery necropsy were considered not toxicologically important. In mice at 25 mg/kg/dose (75 mg/kg/day) there were decreased thymus weights (males), follicular epithelium vacuolation in the thyroid, and lymphoid depletion of the thymus (males). All findings were reversible but a NOEL was not present at this dose level. At the no NOAEL of 300 mg/kg/day, there were clinical hematology, chemistry, and anatomic pathology findings similar to those observed in the dogs. All findings were reversible.
Based on these observations, the NOAEL for UV-4B following 14 days of TID administration in mice is considered to be 300 mg/kg/day. This dose level corresponded to Day 14 mean Cmax […]
ng•h/mL, respectively. Daily exposure at NOAEL [calculated as 3 x AUC(0-8)] is estimated at 163,305 ng•h/mL. In dogs, the NOAEL following 14 days of TID administration is considered to be 30 mg/kg/day. At the end of the dosing phase, this dose level corresponded to average […]
Daily exposure [calculated as 3 x AUC(0-8)] is estimated at 32,820 ng•h/mL.
This material is the property of the Unither Virology. […]

[4] = set-up: method as in Investigator’s Brochure (IB); conditions: 50 mg/kg/day for 13 days; ref Investigator’s Brochure (IB); cited from earlier work

Row | Compound | Direct inhibition of CYP1A2 (CYP1A2) | Metabolic stability [1] | Multiple of predicted minimum clinically efficacious dose at which arterial pulse pressure decreased [2] | AUC(0-t) [3] | Finding in rabbit offspring [4]
1 | COCCCCCCCCCN1C[C@H](O)[C@@H](O)[C@H](O)[C@H]1CO [UV-4, N-(9’-methoxynonyl)-1-deoxynojirimycin] | No clinically relevant direct inhibition | metabolically stable |  |  | 
2 | COCCCCCCCCCN1C[C@H](O)[C@@H](O)[C@H](O)[C@H]1CO [UV-4B, N-(9’-methoxynonyl)-1-deoxynojirimycin hydrochloride] |  |  | approximately 30 fold | 163 µg·h/mL | skeletal and visceral malformations
